Like-named read-outs stand apart in the source and are kept apart here.
What was measured:
[1] = system: Abutilon theophrasti (ABUTH), velvetleaf; assay: Postemergence herbicide evaluation, growth of Abutilon theophrasti (ABUTH); type: in vivo; conditions: Abutilon theophrasti, post-emergence, read-out: AVE. ABUTH
[2] = system: Chenopodium album (CHEAL), common lambsquarters; assay: Postemergence herbicide evaluation, growth of Chenopodium album (CHEAL); type: in vivo; conditions: Chenopodium album, post-emergence, read-out: Ave. CHEAL
[3] = system: glyphosate resistant Conyza canadensis (L.) (ERICA), horseweed; assay: Postemergence herbicide evaluation, growth of Conyza canadensis (ERICA); type: in vivo; conditions: Erigeron canadensis, post-emergence, read-out: Ave. ERICA
[4] = system: weeds (ABUTH, AMATA, AMBEL, CHEAL, ERICA); assay: Postemergence herbicide evaluation, overall average % weed control across ABUTH, AMATA, AMBEL, CHEAL, ERICA; type: in vivo; conditions: post-emergence, average over the five weeds, read-out: Overall Ave % Weed Control; for pest or weed control at 280 g/ha: 280 g ae/ha; for pest or weed control at 560 g/ha: 560 g ae/ha
[5] = system: Amaranthus rudis (AMATA), tall water hemp; assay: Postemergence herbicide evaluation, growth of Amaranthus rudis (AMATA); type: in vivo; conditions: Amaranthus tuberculatus, post-emergence, read-out: Ave. AMATA
[6] = system: Ambrosia artemisiifolia (AMBEL), common ragweed; assay: Postemergence herbicide evaluation, growth of Ambrosia artemisiifolia (AMBEL); type: in vivo; conditions: Ambrosia artemisiifolia, post-emergence, read-out: AVE. AMBEL
[7] = Volatility of compounds measured by thermogravimetric analysis (TGA); type: physicochemical
[8] = 168 h, 280 g ae/ha, 7 DAA, percent reduction in plant size relative to untreated control
[9] = 168 h, 560 g ae/ha, 7 DAA, percent reduction in plant size relative to untreated control
[10] = 336 h, 280 g ae/ha, 14 DAA, percent reduction in plant size relative to untreated control
[11] = 336 h, 560 g ae/ha, 14 DAA, percent reduction in plant size relative to untreated control
[12] = 504 h, 280 g ae/ha, 21 DAA, percent reduction in plant size relative to untreated control
[13] = 504 h, 560 g ae/ha, 21 DAA, percent reduction in plant size relative to untreated control

O=C(COc1ccc(Cl)cc1Cl)Oc1ccc(Cl)cc1 [Compound E5, 4-Chlorophenyl 2-(2,4-dichlorophenoxy)acetate]
pest or weed control at 280 g/ha ([1]; 168 h): 78%
pest or weed control at 560 g/ha ([1]; 168 h): 85%
pest or weed control at 280 g/ha ([1]; 336 h): 93%
pest or weed control at 560 g/ha ([1]; 336 h): 93%
pest or weed control at 280 g/ha ([1]; 504 h): 98%
pest or weed control at 560 g/ha ([1]; 504 h): 97%
pest or weed control at 280 g/ha ([2]; 168 h): 70%
pest or weed control at 560 g/ha ([2]; 168 h): 68%
pest or weed control at 280 g/ha ([2]; 336 h): 73%
pest or weed control at 560 g/ha ([2]; 336 h): 83%
pest or weed control at 280 g/ha ([2]; 504 h): 80%
pest or weed control at 560 g/ha ([2]; 504 h): 94%
pest or weed control at 280 g/ha ([3]; 168 h): 68%
pest or weed control at 560 g/ha ([3]; 168 h): 70%
pest or weed control at 280 g/ha ([3]; 336 h): 90%
pest or weed control at 560 g/ha ([3]; 336 h): 83%
pest or weed control at 280 g/ha ([3]; 504 h): 95%
pest or weed control at 560 g/ha ([3]; 504 h): 90%
pest or weed control at 280 g/ha ([4]; 168 h, 7 DAA): 71%
pest or weed control at 560 g/ha ([4]; 168 h, 7 DAA): 75%
pest or weed control at 280 g/ha ([4]; 336 h, 14 DAA): 84%
pest or weed control at 560 g/ha ([4]; 336 h, 14 DAA): 88%
pest or weed control at 280 g/ha ([4]; 504 h, 21 DAA): 88%
pest or weed control at 560 g/ha ([4]; 504 h, 21 DAA): 93%
pest or weed control at 280 g/ha ([5]; 168 h): 73%
pest or weed control at 560 g/ha ([5]; 168 h): 78%
pest or weed control at 280 g/ha ([5]; 336 h): 75%
pest or weed control at 560 g/ha ([5]; 336 h): 89%
pest or weed control at 280 g/ha ([5]; 504 h): 78%
pest or weed control at 560 g/ha ([5]; 504 h): 86%
pest or weed control at 280 g/ha ([6]; 168 h): 68%
pest or weed control at 560 g/ha ([6]; 168 h): 75%
pest or weed control at 280 g/ha ([6]; 336 h): 89%
pest or weed control at 560 g/ha ([6]; 336 h): 93%
pest or weed control at 280 g/ha ([6]; 504 h): 90%
pest or weed control at 560 g/ha ([6]; 504 h): 98%
TGA Data (rate of weight loss, volatility) [7]: 0.6 µg/min

Cc1cc(OC(=O)COc2ccc(Cl)cc2Cl)n(C)n1 [Compound E6, 1,3-Dimethyl-1H-pyrazol-5-yl 2-(2,4-dichlorophenoxy)acetate]
pest or weed control at 280 g/ha [1, 8]: 83%
pest or weed control at 560 g/ha [1, 9]: 83%
pest or weed control at 280 g/ha [1, 10]: 88%
pest or weed control at 560 g/ha [1, 11]: 93%
pest or weed control at 280 g/ha [1, 12]: 96%
pest or weed control at 560 g/ha [1, 13]: 94%
pest or weed control at 280 g/ha [2, 8]: 63%
pest or weed control at 560 g/ha [2, 9]: 70%
pest or weed control at 280 g/ha [2, 10]: 65%
pest or weed control at 560 g/ha [2, 11]: 85%
pest or weed control at 280 g/ha [2, 12]: 58%
pest or weed control at 560 g/ha [2, 13]: 90%
pest or weed control at 280 g/ha [3, 8]: 63%
pest or weed control at 560 g/ha [3, 9]: 65%
pest or weed control at 280 g/ha [3, 10]: 83%
pest or weed control at 560 g/ha [3, 11]: 83%
pest or weed control at 280 g/ha [3, 12]: 96%
pest or weed control at 560 g/ha [3, 13]: 95%
pest or weed control at 280 g/ha ([4]; 168 h, 7 DAA): 69%
pest or weed control at 560 g/ha ([4]; 168 h, 7 DAA): 73%
pest or weed control at 280 g/ha ([4]; 336 h, 14 DAA): 79%
pest or weed control at 560 g/ha ([4]; 336 h, 14 DAA): 86%
pest or weed control at 280 g/ha ([4]; 504 h, 21 DAA): 82%
pest or weed control at 560 g/ha ([4]; 504 h, 21 DAA): 90%
pest or weed control at 280 g/ha [5, 8]: 70%
pest or weed control at 560 g/ha [5, 9]: 75%
pest or weed control at 280 g/ha [5, 10]: 82%
pest or weed control at 560 g/ha [5, 11]: 80%
pest or weed control at 280 g/ha [5, 12]: 70%
pest or weed control at 560 g/ha [5, 13]: 77%
pest or weed control at 280 g/ha [6, 8]: 65%
pest or weed control at 560 g/ha [6, 9]: 73%
pest or weed control at 280 g/ha [6, 10]: 80%
pest or weed control at 560 g/ha [6, 11]: 88%
pest or weed control at 280 g/ha [6, 12]: 93%
pest or weed control at 560 g/ha [6, 13]: 96%
TGA Data (rate of weight loss, volatility) [7]: 1 µg/min

O=C(COc1ccc(Cl)cc1Cl)OCOC(=O)c1ccccc1 [Compound E7, (2-(2,4-Dichlorophenoxy)acetoxy)methyl benzoate]
pest or weed control at 280 g/ha ([1]; 168 h): 80%
pest or weed control at 560 g/ha ([1]; 168 h): 85%
pest or weed control at 280 g/ha ([1]; 336 h): 84%
pest or weed control at 560 g/ha ([1]; 336 h): 89%
pest or weed control at 280 g/ha ([1]; 504 h): 90%
pest or weed control at 560 g/ha ([1]; 504 h): 92%
pest or weed control at 280 g/ha ([2]; 168 h): 68%
pest or weed control at 560 g/ha ([2]; 168 h): 75%
pest or weed control at 280 g/ha ([2]; 336 h): 73%
pest or weed control at 560 g/ha ([2]; 336 h): 93%
pest or weed control at 280 g/ha ([2]; 504 h): 70%
pest or weed control at 560 g/ha ([2]; 504 h): 70%
pest or weed control at 280 g/ha ([3]; 168 h): 65%
pest or weed control at 560 g/ha ([3]; 168 h): 70%
pest or weed control at 280 g/ha ([3]; 336 h): 83%
pest or weed control at 560 g/ha ([3]; 336 h): 88%
pest or weed control at 280 g/ha ([3]; 504 h): 93%
pest or weed control at 560 g/ha ([3]; 504 h): 95%
pest or weed control at 280 g/ha ([4]; 168 h, 7 DAA): 71%
pest or weed control at 560 g/ha ([4]; 168 h, 7 DAA): 78%
pest or weed control at 280 g/ha ([4]; 336 h, 14 DAA): 85%
pest or weed control at 560 g/ha ([4]; 336 h, 14 DAA): 90%
pest or weed control at 280 g/ha ([4]; 504 h, 21 DAA): 88%
pest or weed control at 560 g/ha ([4]; 504 h, 21 DAA): 89%
pest or weed control at 280 g/ha ([5]; 168 h): 78%
pest or weed control at 560 g/ha ([5]; 168 h): 80%
pest or weed control at 280 g/ha ([5]; 336 h): 95%
pest or weed control at 560 g/ha ([5]; 336 h): 85%
pest or weed control at 280 g/ha ([5]; 504 h): 93%
pest or weed control at 560 g/ha ([5]; 504 h): 89%
pest or weed control at 280 g/ha ([6]; 168 h): 63%
pest or weed control at 560 g/ha ([6]; 168 h): 78%
pest or weed control at 280 g/ha ([6]; 336 h): 93%
pest or weed control at 560 g/ha ([6]; 336 h): 97%
pest or weed control at 280 g/ha ([6]; 504 h): 96%
pest or weed control at 560 g/ha ([6]; 504 h): 100%
TGA Data (rate of weight loss, volatility) [7]: 1.5 µg/min

Reference: patent US20260042731A1, “(2,4-DICHLOROPHENOXY)ACETIC ACID ANALOGS” (CORTEVA AGRISCIENCE LLC, priority 2022, published 2026)
